In BindingDB's records for doi:10.1021/jm0605482 (Amgen, 2006):

Target: Aurora kinase B (Homo sapiens) (UniProt Q96GD4)
Assay: Inhibition of Aurora1 by HTRF kinase assay

Chain of Aurora kinase B (Homo sapiens) (Q96GD4 whole entry, looked up): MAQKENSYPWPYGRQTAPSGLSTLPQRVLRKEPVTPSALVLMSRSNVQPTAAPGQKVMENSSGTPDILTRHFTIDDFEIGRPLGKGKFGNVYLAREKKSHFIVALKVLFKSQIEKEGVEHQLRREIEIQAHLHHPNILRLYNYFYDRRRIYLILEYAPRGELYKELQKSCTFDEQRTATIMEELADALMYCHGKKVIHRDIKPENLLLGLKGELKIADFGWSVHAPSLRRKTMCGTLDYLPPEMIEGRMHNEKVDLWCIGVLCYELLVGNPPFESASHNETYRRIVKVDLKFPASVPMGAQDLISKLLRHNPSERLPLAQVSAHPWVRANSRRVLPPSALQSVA

IC50: > 5 µM
Structure (SMILES): CNc1ncc2cc(-c3cc(C(=O)Nc4cc(C(F)(F)F)ccc4OC4CCN(C)CC4)ccc3C)ccc2n1 [4-methyl-3-(2-(methylamino)quinazolin-6-yl)-N-(2-(1-methylpiperidin-4-yloxy)-5-(trifluoromethyl)phenyl)benzamide]
